From patent publication US11985975B1, “N-[(2-{[(furan-ylcarbonyl)carbamothioyl]amino }phenyl)carbamothioyl]furan-2-carboxamide as an eco-friendly insecticidal agent against Spodoptera littoralis (boisd.)” (KING FAISAL UNIVERSITY, priority 2023, dated 2024)
Values after ≈ are worked out from the molar mass of the structure shown. Where two headings read alike, the source gives them in different places.

Test system: Spodoptera littoralis larvae (second and fourth instars)
Experiment: Insecticidal bioassay screening (castor leaf dip), laboratory strain of cotton leafworm
Format: in vivo
Conditions: for LC90 (mg/L) at 95%: after 72 hrs of treatment; for Toxicity index %: after 72 hrs, reference LC50/compound LC50 x 100; for LC50: Spodoptera littoralis, foliar
Description: Five concentrations (200, 100, 50, 25, 12.5 ppm) were designed for this synthetic compound and the reference Diflubenzuron compound as the dynamic ingredients based on ppm via diluting the commercial formulation.
In this experiment, castor leaves are immersed in each of the previously prepared concentrations of the components for 10 seconds and then left to dry for 60 minutes. Larvae of the second and fourth instars of each checked strain are prepared with treated leaves in gauze-covered glass containers for 72 hrs. An untreated control is made in which leaves are dipped in triton x-100 and distilled water only. Then the preserved leaves were removed & fresh, untreated leaves were provided for 72 hours. Three replicates (10 larvae each) were checked for each concentration. Daily inspection was carried out for all treatments and mortality percentages were recorded 3 days (72 hours) after treatment. The average mortality percentage was corrected employing Abbott's formula. The corrected mortality rate for each of the previously synthesized compounds is statistically calculated according to Finney (1970). Through this rate, the corresponding concentration test lines (LDP lines) are assessed.

[1] = 72 h, read-out: LC50 (mg/L) at 95%, 2nd instar larvae, after 72 hrs of treatment
[2] = 72 h, read-out: LC50 (mg/L) at 95%, 4th instar larvae, after 72 hrs of treatment
[3] = against Spodoptera littoralis under laboratory conditions (instar not stated)

Q: Which results are given for `O=C(NC(=O)c1c(F)cccc1F)Nc1ccc(Cl)cc1` [Diflubenzuron, reference compound]?
A: LC90 (mg/L) at 95% (2nd instar larvae): 520.0 mg/L (≈ 1670 µM); Toxicity index % (2nd instar larvae): 100%; LC90 (mg/L) at 95% (4th instar larvae): 1540.5 mg/L (≈ 4960 µM); Toxicity index % (4th instar larvae): 100%; LC50 [1]: 45.2 mg/L (≈ 145 µM); LC50 [2]: 144 mg/L (≈ 464 µM); LC50 [3]: 45.2 mg/L (≈ 145 µM)

Q: What does the source list for `O=C(NC(=S)Nc1ccccc1NC(=S)NC(=O)c1ccco1)c1ccco1` [Compound 2, N-[(2-{[(furan-ylcarbonyl)carbamothioyl]amino}phenyl)carbamothioyl]furan-2-carboxamide]?
A: LC90 (mg/L) at 95% (2nd instar larvae): 7450.5 mg/L (≈ 18000 µM); Toxicity index % (2nd instar larvae): 10.6%; LC90 (mg/L) at 95% (4th instar larvae): 1837.2 mg/L (≈ 4430 µM); Toxicity index % (4th instar larvae): 14.7%; LC50 [1]: 424 mg/L (≈ 1020 µM); LC50 [2]: 976 mg/L (≈ 2350 µM); LC50 [3]: 424 mg/L (≈ 1020 µM); Insecticidal activity (in words) (compared with reference insecticide Diflubenzuron): active against Spodoptera littoralis
